Source: ChEMBL document CHEMBL5338817, “Discovery of Exceptionally Potent, Selective, and Efficacious PROTAC Degraders of CBP and p300 Proteins” (J Med Chem, 2023)
The source made the active and inactive calls. The calls are words filed in the database; no cut-off is given here.

Assays:
RS4-11 [1] = assay: Antitumor activity against human RS4-11 cells xenografted in SCID mouse assessed as tumor growth inhibition at 1 mg/kg, ip administered twice a week on day 1 and day 4 for 2 weeks relative to control; type: functional; set-up: scale not given: the % may be the effect or the level left
MOLM-13 [2] = assay: Cytotoxicity against human MOLM-13 cells assessed as maximum inhibition of cell growth incubated for 4 days by cellTiter-Glo assay relative to control; type: functional; conditions: time 4 day
Mus musculus [3] = assay: In vivo induction of p300 degradation in human RS4-11 cells xenografted in SCID mouse at 3 mg/kg, ip measured after 24 to 48 hrs by Western blot analysis; type: functional, organism-based; conditions: time 24-48 hrs
[4] = Toxicity in SCID mouse xenografted with human RS4-11 cells assessed as body weight loss at 1 mg/kg, ip administered three times a week for 2 weeks relative to control; type: organism-based; conditions: in vivo, 336 h
RS4-11 [5] = assay: Antitumor activity against human RS4-11 cells xenografted in SCID mouse assessed as tumor growth inhibition at 0.3 mg/kg, ip administered five days a week for 2 weeks relative to control; type: functional; set-up: scale not given: the % may be the effect or the level left
[6] = target: Bromodomain-containing protein 4 (Homo sapiens) (UniProt O60885); assay: Induction of BRD4 degradation in human RS4-11 cells at 10 nM incubated for 4 hrs by Western blot analysis; type: cell-based
HL-60 [7] = assay: Cytotoxicity against human HL-60 cells assessed as maximum inhibition of cell growth incubated for 4 days by cellTiter-Glo assay relative to control; type: functional; conditions: time 4 day
RS4-11 [8] = assay: Antitumor activity against human RS4-11 cells xenografted in SCID mouse assessed as tumor growth inhibition at 1 mg/kg, ip administered thrice a week on day 1, 3 and 5 for 2 weeks relative to control; type: functional; set-up: scale not given: the % may be the effect or the level left
RS4-11 [9] = assay: Cytotoxicity against human RS4-11 cells assessed as inhibition of cell growth incubated for 4 days by cellTiter-Glo assay; type: functional, cell-based; conditions: RS4-11, 96 h
[10] = Toxicity in SCID mouse xenografted with human RS4-11 cells assessed as body weight loss at 3 mg/kg, ip administered once a week on day 1 for 2 weeks relative to control; type: organism-based; conditions: in vivo, 336 h
RS4-11 [11] = assay: Cytotoxicity against human RS4-11 cells assessed as maximum inhibition of cell growth incubated for 4 days by cellTiter-Glo assay relative to control; type: functional; conditions: time 4 day
HL-60 [12] = assay: Cytotoxicity against human HL-60 cells assessed as inhibition of cell growth incubated for 4 days by cellTiter-Glo assay; type: functional, cell-based; conditions: HL-60, 96 h
RS4-11 [13] = assay: In vivo induction of CBP degradation in human RS4-11 cells xenografted in SCID mouse at 3 mg/kg, ip measured after 3 to 6 hrs by Western blot analysis; type: functional, organism-based; conditions: time 3-6 hrs
[14] = Toxicity in SCID mouse xenografted with human RS4-11 cells assessed as body weight loss at 0.3 mg/kg, ip administered five days a week for 2 weeks relative to control; type: organism-based; conditions: in vivo, 336 h
CREB-binding protein [15] = target: T1, CREB-binding protein (Homo sapiens, UniProt Q92793); assay: Induction of CBP degradation in human RS4-11 cells at 10 nM incubated for 3 hrs by Proteomics analysis; type: cell-based
Target sequence in this assay (Q92793 2-2442 limits assumed): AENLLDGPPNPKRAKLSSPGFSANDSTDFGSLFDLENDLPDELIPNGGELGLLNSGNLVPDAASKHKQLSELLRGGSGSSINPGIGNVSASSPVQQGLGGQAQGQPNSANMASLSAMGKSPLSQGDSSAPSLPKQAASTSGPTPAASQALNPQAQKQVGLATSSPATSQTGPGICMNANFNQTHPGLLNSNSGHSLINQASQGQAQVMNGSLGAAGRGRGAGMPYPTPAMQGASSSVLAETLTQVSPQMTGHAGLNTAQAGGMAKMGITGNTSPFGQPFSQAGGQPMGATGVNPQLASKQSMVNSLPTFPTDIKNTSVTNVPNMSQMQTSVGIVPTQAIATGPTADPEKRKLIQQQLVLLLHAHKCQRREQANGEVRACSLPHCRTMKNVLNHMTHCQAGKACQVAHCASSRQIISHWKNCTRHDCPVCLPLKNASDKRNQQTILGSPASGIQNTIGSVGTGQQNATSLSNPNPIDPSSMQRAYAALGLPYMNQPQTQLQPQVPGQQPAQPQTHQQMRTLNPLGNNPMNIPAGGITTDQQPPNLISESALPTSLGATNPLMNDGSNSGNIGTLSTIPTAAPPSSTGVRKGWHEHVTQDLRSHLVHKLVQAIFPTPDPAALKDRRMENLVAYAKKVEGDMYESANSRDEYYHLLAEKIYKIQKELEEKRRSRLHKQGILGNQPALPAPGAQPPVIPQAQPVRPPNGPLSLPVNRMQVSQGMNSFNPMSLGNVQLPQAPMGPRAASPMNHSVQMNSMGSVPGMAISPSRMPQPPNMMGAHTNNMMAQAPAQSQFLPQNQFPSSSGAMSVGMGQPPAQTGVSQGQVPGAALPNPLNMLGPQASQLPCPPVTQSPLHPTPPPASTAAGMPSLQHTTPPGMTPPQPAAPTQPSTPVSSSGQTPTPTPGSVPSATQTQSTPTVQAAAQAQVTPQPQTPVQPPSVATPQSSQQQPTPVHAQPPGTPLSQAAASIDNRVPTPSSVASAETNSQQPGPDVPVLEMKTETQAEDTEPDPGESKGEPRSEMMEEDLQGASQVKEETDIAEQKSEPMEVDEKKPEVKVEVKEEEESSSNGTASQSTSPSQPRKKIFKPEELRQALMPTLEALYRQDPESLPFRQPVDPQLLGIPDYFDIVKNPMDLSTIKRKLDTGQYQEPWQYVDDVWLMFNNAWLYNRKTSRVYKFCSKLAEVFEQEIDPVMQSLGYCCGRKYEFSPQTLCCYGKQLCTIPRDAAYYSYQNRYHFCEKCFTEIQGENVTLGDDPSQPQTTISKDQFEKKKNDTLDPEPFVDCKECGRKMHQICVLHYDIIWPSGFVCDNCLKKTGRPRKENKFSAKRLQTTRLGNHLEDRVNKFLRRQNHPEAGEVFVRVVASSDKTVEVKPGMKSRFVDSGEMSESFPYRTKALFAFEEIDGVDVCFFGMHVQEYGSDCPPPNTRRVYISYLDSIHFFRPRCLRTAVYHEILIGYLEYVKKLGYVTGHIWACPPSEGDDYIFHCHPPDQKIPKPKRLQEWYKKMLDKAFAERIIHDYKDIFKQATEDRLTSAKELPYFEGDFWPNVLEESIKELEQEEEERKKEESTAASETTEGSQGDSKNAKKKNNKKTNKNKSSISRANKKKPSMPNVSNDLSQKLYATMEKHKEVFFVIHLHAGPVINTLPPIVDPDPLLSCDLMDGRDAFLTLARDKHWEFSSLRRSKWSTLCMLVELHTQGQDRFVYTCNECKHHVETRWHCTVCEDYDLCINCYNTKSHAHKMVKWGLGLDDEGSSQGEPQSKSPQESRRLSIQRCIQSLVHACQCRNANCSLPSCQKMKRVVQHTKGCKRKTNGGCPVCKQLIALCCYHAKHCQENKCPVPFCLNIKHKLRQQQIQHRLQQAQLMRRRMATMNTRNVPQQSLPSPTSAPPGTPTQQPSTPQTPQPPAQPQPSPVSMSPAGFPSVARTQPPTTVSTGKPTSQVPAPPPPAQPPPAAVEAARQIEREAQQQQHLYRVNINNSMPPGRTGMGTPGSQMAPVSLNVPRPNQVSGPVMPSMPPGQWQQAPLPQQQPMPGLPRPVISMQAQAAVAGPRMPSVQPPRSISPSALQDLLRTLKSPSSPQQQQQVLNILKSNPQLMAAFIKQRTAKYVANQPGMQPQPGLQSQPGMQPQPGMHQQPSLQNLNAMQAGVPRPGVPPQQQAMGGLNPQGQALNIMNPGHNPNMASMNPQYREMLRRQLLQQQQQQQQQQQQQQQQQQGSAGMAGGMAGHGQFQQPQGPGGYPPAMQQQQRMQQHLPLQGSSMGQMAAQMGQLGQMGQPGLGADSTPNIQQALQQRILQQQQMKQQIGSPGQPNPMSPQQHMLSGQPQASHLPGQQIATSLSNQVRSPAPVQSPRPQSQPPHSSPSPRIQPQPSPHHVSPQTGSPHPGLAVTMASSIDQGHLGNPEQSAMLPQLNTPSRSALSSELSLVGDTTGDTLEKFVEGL

[16] = target: T2, Non-selective voltage-gated ion channel VDAC2 (Homo sapiens) (UniProt P45880); assay: Induction of VDAC2 degradation in human RS4-11 cells assessed as fold reduction in protein level at 10 nM incubated for 4 hrs by Western blot analysis; type: cell-based
T2 sequence (whole entry): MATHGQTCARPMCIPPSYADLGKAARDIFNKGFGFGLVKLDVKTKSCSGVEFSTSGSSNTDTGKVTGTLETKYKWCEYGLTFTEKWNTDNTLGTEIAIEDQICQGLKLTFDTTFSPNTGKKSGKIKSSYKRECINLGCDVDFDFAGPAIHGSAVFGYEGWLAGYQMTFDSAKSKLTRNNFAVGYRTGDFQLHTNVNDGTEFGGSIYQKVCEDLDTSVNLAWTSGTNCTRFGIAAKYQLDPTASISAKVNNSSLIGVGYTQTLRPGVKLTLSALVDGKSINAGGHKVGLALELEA

[17] = target: Non-selective voltage-gated ion channel VDAC1 (Homo sapiens) (UniProt P21796); assay: Induction of VDAC1 degradation in human RS4-11 cells assessed as fold reduction in protein level at 10 nM incubated for 4 hrs by Western blot analysis; type: cell-based
MV4-11 [18] = assay: Cytotoxicity against human MV4-11 cells assessed as inhibition of cell growth incubated for 4 days by cellTiter-Glo assay; type: functional, cell-based; conditions: MV4-11, 96 h
CREB-binding protein [19] = target: T1, CREB-binding protein; assay: Induction of CBP degradation in human RS4-11 cells assessed as maximal degradation incubated for 4 hrs by Western blot assay; type: cell-based
Target sequence in this assay (Q92793 2-2442 limits assumed): as the sequence (Q92793 2-2442 limits assumed) above

RS4-11 [20] = assay: Downregulation of MYB gene expression in human RS4-11 cells at 1 nM measured after 8 hrs by qRT-PCR analysis; type: functional, cell-based
[21] = target: T3, Histone acetyltransferase p300 (Homo sapiens, UniProt Q09472); assay: Induction of p300 degradation in human RS4-11 cells incubated for 4 hrs by Western blot assay; type: cell-based
CREB-binding protein [22] = target: T1, CREB-binding protein; assay: Induction of CBP degradation in human RS4-11 cells incubated for 4 hrs by Western blot assay; type: cell-based
RS4-11 [23] = assay: Downregulation of MYC gene expression in human RS4-11 cells at 1 nM measured after 8 hrs by qRT-PCR analysis; type: functional, cell-based
MOLM-13 [24] = assay: Cytotoxicity against human MOLM-13 cells assessed as inhibition of cell growth incubated for 4 days by cellTiter-Glo assay; type: functional, cell-based; conditions: MOLM-13, 96 h
[25] = target: T3, Histone acetyltransferase p300; assay: Induction of p300 degradation in human RS4-11 cells at 10 nM incubated for 3 hrs by Proteomics analysis; type: cell-based
MV4-11 [26] = assay: Cytotoxicity against human MV4-11 cells assessed as maximum inhibition of cell growth incubated for 4 days by cellTiter-Glo assay relative to control; type: functional; conditions: time 4 day
[27] = target: T3, Histone acetyltransferase p300; assay: Induction of p300 degradation in human RS4-11 cells assessed as maximal degradation incubated for 4 hrs by Western blot assay relative to control; type: cell-based
[28] = Drug concentration in IP dosed SCID mouse tumor xenografted with RS4-11 cells measured after 24 to 48 hrs by LC-HRMS method; type: ADME, organism-based, Neoplasm; conditions: in vivo, time 24-48 hrs
RS4-11 [29] = assay: In vivo induction of p300 degradation in human RS4-11 cells xenografted in SCID mouse at 3 mg/kg, ip measured after 3 to 6 hrs by Western blot analysis; type: functional, organism-based; conditions: time 3-6 hrs
Mus musculus [30] = assay: In vivo induction of CBP degradation in human RS4-11 cells xenografted in SCID mouse at 1 mg/kg, ip measured after 3 hrs by Western blot analysis; type: functional, organism-based
[31] = Toxicity in SCID mouse xenografted with human RS4-11 cells assessed as body weight loss at 1 mg/kg, ip administered twice a week on day 1 and day 4 for 2 weeks relative to control; type: organism-based; conditions: in vivo, 336 h
Mus musculus [32] = assay: In vivo induction of CBP degradation in human RS4-11 cells xenografted in SCID mouse at 3 mg/kg, ip measured after 24 to 48 hrs by Western blot analysis; type: functional, organism-based; conditions: time 24-48 hrs
Mus musculus [33] = assay: In vivo induction of p300 degradation in human RS4-11 cells xenografted in SCID mouse at 1 mg/kg, ip measured after 3 hrs by Western blot analysis; type: functional, organism-based
RS4-11 [34] = assay: Induction of cell cycle arrest in human RS4-11 cells assessed as accumulation at G1 phase at 1 uM measured after 8 hrs by PI staining based flow cytometric analysis; type: functional
RS4-11 [35] = assay: Antitumor activity against human RS4-11 cells xenografted in SCID mouse assessed as tumor growth inhibition at 3 mg/kg, ip administered once a week on day 1 for 2 weeks relative to control; type: functional; set-up: scale not given: the % may be the effect or the level left
[36] = Drug concentration in SCID mouse tumor xenografted with RS4-11 cells at 1 mg/kg, ip measured after 3 hrs by LC-HRMS method; type: ADME, organism-based, Neoplasm; conditions: read-out: Ct
[37] = Drug concentration in SCID mouse tumor xenografted with RS4-11 cells at 3 mg/kg, ip measured after 3 hrs by LC-HRMS method; type: ADME, organism-based, Neoplasm; conditions: read-out: Ct

T3 sequence (Q09472 whole entry): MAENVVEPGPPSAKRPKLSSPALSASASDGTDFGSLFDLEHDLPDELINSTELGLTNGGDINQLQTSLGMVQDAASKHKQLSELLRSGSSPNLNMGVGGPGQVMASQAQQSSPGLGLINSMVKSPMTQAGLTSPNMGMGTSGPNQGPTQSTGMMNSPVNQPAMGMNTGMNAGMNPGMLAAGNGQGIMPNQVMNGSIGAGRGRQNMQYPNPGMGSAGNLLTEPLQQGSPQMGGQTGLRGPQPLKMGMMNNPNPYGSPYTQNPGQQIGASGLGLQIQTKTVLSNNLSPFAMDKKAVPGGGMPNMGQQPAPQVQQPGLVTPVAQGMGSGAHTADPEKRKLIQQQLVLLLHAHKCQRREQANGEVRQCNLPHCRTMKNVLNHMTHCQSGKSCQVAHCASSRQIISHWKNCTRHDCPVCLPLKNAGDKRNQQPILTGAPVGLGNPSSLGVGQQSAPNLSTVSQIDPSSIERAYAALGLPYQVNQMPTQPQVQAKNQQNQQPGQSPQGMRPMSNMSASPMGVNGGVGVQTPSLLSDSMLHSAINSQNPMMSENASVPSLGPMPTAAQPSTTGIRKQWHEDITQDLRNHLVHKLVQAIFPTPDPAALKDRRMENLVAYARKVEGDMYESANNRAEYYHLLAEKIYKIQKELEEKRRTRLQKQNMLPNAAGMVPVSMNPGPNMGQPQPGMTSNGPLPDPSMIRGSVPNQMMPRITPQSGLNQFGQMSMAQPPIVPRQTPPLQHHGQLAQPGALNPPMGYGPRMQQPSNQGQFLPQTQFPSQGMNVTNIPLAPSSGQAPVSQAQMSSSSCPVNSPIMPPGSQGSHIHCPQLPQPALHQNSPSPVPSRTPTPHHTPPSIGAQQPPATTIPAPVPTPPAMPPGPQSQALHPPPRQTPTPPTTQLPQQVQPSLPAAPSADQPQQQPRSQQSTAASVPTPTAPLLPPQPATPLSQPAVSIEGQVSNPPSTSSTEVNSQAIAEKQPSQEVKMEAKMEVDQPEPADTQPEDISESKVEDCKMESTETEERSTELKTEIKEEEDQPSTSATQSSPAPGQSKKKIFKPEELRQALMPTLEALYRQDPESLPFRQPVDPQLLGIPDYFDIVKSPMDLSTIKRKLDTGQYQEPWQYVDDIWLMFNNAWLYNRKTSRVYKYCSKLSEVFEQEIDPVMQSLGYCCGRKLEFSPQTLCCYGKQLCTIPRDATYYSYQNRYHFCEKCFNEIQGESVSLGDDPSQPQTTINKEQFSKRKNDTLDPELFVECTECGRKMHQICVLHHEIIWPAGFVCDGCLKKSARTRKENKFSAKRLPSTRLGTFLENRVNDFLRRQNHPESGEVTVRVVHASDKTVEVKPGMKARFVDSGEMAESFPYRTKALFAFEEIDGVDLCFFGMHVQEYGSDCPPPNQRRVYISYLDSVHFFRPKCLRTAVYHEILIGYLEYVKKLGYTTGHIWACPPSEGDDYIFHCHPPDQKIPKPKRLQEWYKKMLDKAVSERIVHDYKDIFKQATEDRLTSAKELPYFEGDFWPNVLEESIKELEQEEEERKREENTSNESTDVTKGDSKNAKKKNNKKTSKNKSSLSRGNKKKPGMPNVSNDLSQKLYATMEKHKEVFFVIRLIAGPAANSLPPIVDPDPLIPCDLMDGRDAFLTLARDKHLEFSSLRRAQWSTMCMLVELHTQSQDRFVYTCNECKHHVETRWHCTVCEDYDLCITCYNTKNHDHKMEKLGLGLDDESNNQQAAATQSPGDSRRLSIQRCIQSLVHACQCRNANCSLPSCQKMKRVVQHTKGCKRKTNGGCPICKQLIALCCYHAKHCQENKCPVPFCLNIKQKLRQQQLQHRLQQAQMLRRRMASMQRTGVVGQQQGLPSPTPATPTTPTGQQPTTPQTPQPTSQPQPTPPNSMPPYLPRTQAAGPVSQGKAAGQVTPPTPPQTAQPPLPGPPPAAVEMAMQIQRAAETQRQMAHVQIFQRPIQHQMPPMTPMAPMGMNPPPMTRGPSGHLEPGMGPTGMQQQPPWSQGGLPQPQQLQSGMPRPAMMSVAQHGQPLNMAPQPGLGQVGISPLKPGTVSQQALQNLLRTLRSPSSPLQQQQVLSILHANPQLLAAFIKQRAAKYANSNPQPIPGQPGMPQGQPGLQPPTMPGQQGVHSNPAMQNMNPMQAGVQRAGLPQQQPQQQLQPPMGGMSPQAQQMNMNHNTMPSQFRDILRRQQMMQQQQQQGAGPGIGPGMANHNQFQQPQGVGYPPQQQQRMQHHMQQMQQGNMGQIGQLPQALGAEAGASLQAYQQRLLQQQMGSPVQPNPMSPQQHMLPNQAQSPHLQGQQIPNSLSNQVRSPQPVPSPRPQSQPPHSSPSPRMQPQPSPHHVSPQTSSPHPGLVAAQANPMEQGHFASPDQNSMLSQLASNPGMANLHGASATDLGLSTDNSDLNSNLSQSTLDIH
Non-selective voltage-gated ion channel VDAC1 (Homo sapiens), sequence (P21796 whole entry): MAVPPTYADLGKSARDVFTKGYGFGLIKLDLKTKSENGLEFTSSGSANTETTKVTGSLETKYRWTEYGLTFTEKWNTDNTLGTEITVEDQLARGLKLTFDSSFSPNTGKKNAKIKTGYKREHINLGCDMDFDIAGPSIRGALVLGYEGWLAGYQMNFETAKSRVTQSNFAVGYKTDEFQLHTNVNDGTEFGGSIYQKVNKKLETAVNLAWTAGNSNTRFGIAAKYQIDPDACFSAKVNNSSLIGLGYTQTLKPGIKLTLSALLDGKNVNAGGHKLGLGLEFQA

Activity [6]: inactive
Activity (CREB-binding protein [15]): Active
fold change (FC) [16]: 2
fold change (FC) [17]: 2
Emax (CREB-binding protein [19]): 99%
EC50 [21]: 0.2 nM
EC50 (CREB-binding protein [22]): 0.05 nM
Activity [25]: Active
Emax [27]: 99%
Drug uptake [28]: Not Active
concentration at 3 h [36]: 57.5 ng/g
concentration at 3 h [37]: 240 ng/g
SMILES: CC(=O)N1CCc2c(c(-c3cccc4cc(-c5ccc(C(=O)NC6CCN(c7ccc8c(c7)CN(C7CCC(=O)NC7=O)C8=O)CC6)nc5)ncc34)nn2C2CCOCC2)C1 (configuration not stated)
Activity (RS4-11 [1]): 81%
Imax (MOLM-13 [2]): 96%
Activity (Mus musculus [3]): inactive
Activity [4]: < 3%
Activity (RS4-11 [5]): 68%
Imax (HL-60 [7]): 96%
Activity (RS4-11 [8]): 68%
IC50 (RS4-11 [9]): 0.1 nM
Activity [10]: < 10%
Imax (RS4-11 [11]): 94%
IC50 (HL-60 [12]): 0.54 nM
Activity (RS4-11 [13]): Active
Activity [14]: < 3%
IC50 (MV4-11 [18]): 0.04 nM
Activity (RS4-11 [20]): Active
Activity (RS4-11 [23]): Active
IC50 (MOLM-13 [24]): 2.3 nM
Imax (MV4-11 [26]): 99%
Activity (RS4-11 [29]): Active
Activity (Mus musculus [30]): Active
Activity [31]: < 10%
Activity (Mus musculus [32]): inactive
Activity (Mus musculus [33]): Active
Activity (RS4-11 [34]): Active
Activity (RS4-11 [35]): 81%
